Measurements as given in patent US7666670B2, “Animal model for the fast identification of pharmaceutical active compounds in vivo” (Janssen Pharmaceutica N.V., priority 2003, dated 2010).
Values joined by “and” are separate entries in the source; they are usually repeats but may differ in a detail not shown here. Identical values can stand only once. *1 amine or outer side, *2 acyl side, *3 side chain or, on linkers, in order; H or OH if unused. Where a SMILES comes first, the peptide text is derived from it. Bridges are numbered along the chain shown (N, C = ends). Roman numbers before positions name the chains, in order. [ ]: non-standard residue; d: D form. Actinocin(9to1) = Cc1c2oc3c(C)ccc(C(=O)[*:1])c3nc-2c(C(=O)[*:2])c(N)c1=O; NMeV = CN[C@H](C(=O)O)C(C)C; Sar = CNCC(=O)O

Tests used:
[1] = test system: p21 1300 bp promoter fragment; test: Induction of p21 1300 bp promoter fragment (ZsGreen fluorescence) in pGL3-basic-ZsGreen-1300 transfected A2780 clones; type: cell-based, human; conditions: for Activation of the 1300 bp fragment of the p21 promoter by DNA damaging agents: dose response, clones 1 and 5 (FIG. 1); for Activation of the 1300 bp fragment of the p21 promoter by DNA damaging agents / Fold induction (fluorescence after induction divided by fluorescence of DMSO treated cells): 24 h; for Fold induction (fluorescence after induction divided by fluorescence of DMSO treated cells): Fluoroskan; for Fold induction: first screen of 80 clones, the two clones measurable with Fluoroskan
Experimental: A2780 cells were plated into a 6-well plate at a density of 2×10^5 cells, incubated for 24 hours, and transfected with 2 ug of pGL3-basic-ZsGreen-1300 and 0.2 ug of pSV2neo vector by using Lipofectamine 2000 (Invitrogen, Brussels, Belgium) as described by manufacturer. The transfected cells were selected for 10 days with G418 (Gibco-BRL, Gaithersburg, Md.) and single cell suspensions were grown. After three weeks, 80 single clones were obtained.
The A2780 transfected pool and the selected 80 clones were expanded and seeded at 10000 cells per well into 96-well plates. 24 hours after seeding, the cells were treated for an additional 24 hours with targeted compounds (affecting sp1 sites in the proximal p21 promoter region) or DNA damaging agents (affecting p53 responsive elements). Subsequently, cells were fixed with 4% PFA for 30′ and counterstained with Hoechst dye. The p21 promoter activation leading to ZsGreen production and thus fluorescence, was monitored by the Ascent Fluoroskan (Thermo Labsystems, Brussels, Belgium) and by fluorescence microscope (Zeiss).

[2] = test system: tumor; conditions: PK/PD studies; cited from earlier work
[3] = test system: pGL3-basic-ZsGreen-1300 transfected A2780 xenograft; test: In vivo xenograft fluorescence, Automated Whole Body Imaging System; set-up: species or system nude mice
Experimental: The selected clone was injected subcutaneous (10^7 cells/200 μl) into the flank of nude mice and a calliper measurable tumor was obtained after 12 days. From day 12 on, animals were orally dosed daily during 6 days with solvent, 20 mpk Mitsui (a.k.a. MS-275—Shering—Registry Number 209783-80-2) or 40 mpk compound X (10, 10 and 4 animals respectively). Tumors were evaluated for fluorescence by the in-house developed Automated Whole Body Imaging System (Fluorescent stereomicroscope type Olympus® SZX12 equipped with a GFP filter and coupled to a CCD camera type JAI® CV-M90 controlled by a software package based on the IMAQ Vision Software from National Instruments®).

[4] = test system: p53RE_tk in HCT116 cells; test: Induction of p53RE_tk activity (ZsGreen fluorescence) in transfected HCT116 clones; type: cell-based; conditions: 24 h
Experimental: (§1) A2780 cells and HCT116 cells were plated into a 6-well plate at a density of 4×10^5 cells, incubated for 24 hours, and transfected with 2 ug of p53RE_TK/pGL3-basic-ZsGreen and 0.2 ug of pMC1-neo-Poly A vector by using Lipofectamine and Plus Reagent (Invitrogen, Brussels, Belgium) as described by manufacturer. The transfected cells were selected for 16 days with G418 (Gibco-BRL, Gaithersburg, Md.) and single cell suspensions were grown. After three weeks, 60 single clones were obtained from the transfected HCT116 cells and 40 single clones were obtained from the transfected A2780 cells.
(§2) The A2780 and the HCT116 transfected pool and the selected clones were expanded and seeded at 20000 cells per well into 96-well plates. 24 hours after seeding, the cells were treated for an additional 24 hours with DNA damaging agents (affecting p53 responsive elements). The p53RE_tk activation leading to ZsGreen production and thus fluorescence, was monitored by the Ascent Fluoroskan (Thermo Labsystems, Brussels, Belgium) and by fluorescence microscope (Zeiss).

[5] = test system: p53RE_tk in A2780 cells; test: Induction of p53RE_tk activity (ZsGreen fluorescence) in transfected A2780 clones; type: cell-based, human; conditions: 24 h, Fluoroskan; for Fold induction (fluorescence after induction divided by fluorescence of DMSO treated cells): A2780 clone 36, 10 ng/ml
Experimental: as §1, §2

[6] = 20 mpk orally daily for 6 days from day 12, clone 1 and 5 xenograft, nude mice

Molecule: CC[C@@]1(O)C(=O)OCc2c1cc1n(c2=O)Cc2cc3ccccc3nc2-1 [Camptothecin]
- Activation of the 1300 bp fragment of the p21 promoter by DNA damaging agents [1]: not able to activate
- Activation of the 1300 bp fragment of the p21 promoter by DNA damaging agents ([1]; listed as Campthotecin): non-responsivness

Molecule: COc1cccc2c1C(=O)c1c(O)c3c(c(O)c1C2=O)C[C@@](O)(C(=O)CO)C[C@@H]3O[C@H]1C[C@H](N)[C@H](O)[C@H](C)O1 [Doxorubicin]
- Activation of the 1300 bp fragment of the p21 promoter by DNA damaging agents [1]: not able to activate
- Activation of the 1300 bp fragment of the p21 promoter by DNA damaging agents ([1]; listed as doxorubicin): non-responsivness

Molecule: Nc1ccccc1NC(=O)c1ccc(CNC(=O)OCc2cccnc2)cc1 [Mitsui]
- Compound reaches the tumor [2]: can reach the tumor
- Concentration reached in the tumor [2]: high enough to stop the tumor from growing
- Time after administration of the first dose at which induction of ZsGreen was very clear [3, 6]: 3 days
- Time after starting the treatment at which ZsGreen induction reached a plateau [3, 6]: 5 days
- Basal ZsGreen expression and induction, detection by Automated Whole Body Imaging System ([3]; 20 mpk, clone 2 and 3 xenograft, nude mice): too low
- Induction of fluorescence in the xenograft ([3]; after 4 days of treatment): induces fluorescence
- Fold induction (fluorescence after induction divided by fluorescence of DMSO treated cells) ([1]; clone 1, 10^−6M): 2 fold and 1.8 fold
- Fold induction ([1]; 10^−6, 24 h): 1.2-1.5 fold
- ZsGreen production in pGL3-basic-ZsGreen-1300 transfected A2780 cells in vitro [1]: induce ZsGreen production

Molecule: O=C(CCCCCCC(=O)Nc1ccccc1)NO [SAHA, suberoylanilide hydroxamic acid]
- ZsGreen production in pGL3-basic-ZsGreen-1300 transfected A2780 cells in vitro [1]: induce ZsGreen production

Molecule: CC(/C=C/C(=O)NO)=C\[C@@H](C)C(=O)c1ccc(N(C)C)cc1 [TSA, trichostatin A]
- Fold induction (fluorescence after induction divided by fluorescence of DMSO treated cells) ([1]; clone 1, 10^−7M): 5 fold
- Fold induction ([1]; 10^−7, 24 h): 5 fold
- ZsGreen production in pGL3-basic-ZsGreen-1300 transfected A2780 cells in vitro [1]: induce ZsGreen production

Molecule: Cc1c2oc3c(C)ccc(C(=O)N[C@@H]4C(=O)N[C@H](C(C)C)C(=O)N5CCC[C@H]5C(=O)N(C)CC(=O)N(C)[C@@H](C(C)C)C(=O)O[C@@H]4C)c3nc-2c(C(=O)N[C@@H]2C(=O)N[C@H](C(C)C)C(=O)N3CCC[C@H]3C(=O)N(C)CC(=O)N(C)[C@@H](C(C)C)C(=O)O[C@@H]2C)c(N)c1=O [actinomycin D] (I: T[dV]P[Sar][NMeV] / II: T[dV]P[Sar][NMeV]; ester I:1-I:C, II:1-II:C; linker I:N-II:N via Actinocin(9to1))
- Induction of fluorescence ([4]; HCT116 clones 5 and 36, 10 ng/ml): strong induction factor
- Induction of fluorescence ([4]; the 6 responding HCT116 clones, 10 ng/ml, Fluoroskan): at least a two fold induction
- Fold induction (fluorescence after induction divided by fluorescence of DMSO treated cells) [5]: 2 fold
- Fold induction (fluorescence after induction divided by fluorescence of DMSO treated cells) ([5]; listed as actinomycinD): strong induction factor
- Induction of fluorescence ([5]; the 2 responding A2780 clones, 10 ng/ml): at least a two fold induction

Molecule: Bleomycin
- Activation of the 1300 bp fragment of the p21 promoter by DNA damaging agents [1]: not able to activate
- Activation of the 1300 bp fragment of the p21 promoter by DNA damaging agents ([1]; listed as bleomycin): non-responsivness
